Measured values reported in patent US9763973B2, “Agent for treating HTLV-I associated myelopathy” (NAGASAKI UNIVERSITY, priority 2011, dated 2017).
Values joined by “and” are separate entries in the source; they are usually repeats but may differ in a detail not shown here. Equal values may be shown once.

Legend:
HAM patients [1] = conditions: in vivo test; non-patent documents 4 and 5; cited from earlier work
HTLV-I = conditions: in vitro; non-patent documents 4-6; cited from earlier work
HAM patients [2] = assay: motility dysfunction level (Osame scale), clinical test in HAM patients; format: in vivo, human; conditions: 12 HAM cases; 0-13 scale; changes not found in other cases
From the text: As regards the gait disorder due to HAM-related spastic paraplegia, the gait disorder in the present specification includes not only disorder in walking but also disorder in running and ascending and descending stairs, as well as wheelchair state and bedridden state due to gait function disorders. […]
Test items: the subjective symptoms and neurological observations (including spasticity, gait time, time for descending stairs, motility dysfunction level and the like) were checked at the time of screening, week 0 (initial administration), week 8 from the start of treatment (week 1 after completion of treatment) and week 12 from the start of treatment (week 5 after completion of treatment). Similarly, general clinical tests, and immunological (serum soluble IL-2 receptor (sIL-2R), peripheral blood lymphoblastogenesis test) and virological tests (amount of peripheral blood HTLV-I provirus (real-time quantitative PCR method), anti-HTLV-I antibody titer) were performed. […]

[3] = system: peripheral blood lymphoblastogenesis; assay: lymphoblastogenesis test (stimulation index to PHA), clinical test in HAM patients; format: in vivo, human
Description: (§1) Subject: 12 cases of HAM patients (9 females, 3 males, age; 49-77 years old, duration of illness; 3-52 years) (Table 1).
(§2) Test method: Sodium pentosan polysulfate was subcutaneously administered by 25 mg for the first time (0 week), 50 mg 1 week later, 100 mg once a week from the second week to the 7th week to the brachial region. The test medicament was used in 1 ml ampoule of sodium pentosan polysulfate (100 mg/ml) supplied by bene pharmaChem of Germany.
(§3) Test items: the subjective symptoms and neurological observations (including spasticity, gait time, time for descending stairs, motility dysfunction level and the like) were checked at the time of screening, week 0 (initial administration), week 8 from the start of treatment (week 1 after completion of treatment) and week 12 from the start of treatment (week 5 after completion of treatment). Similarly, general clinical tests, and immunological (serum soluble IL-2 receptor (sIL-2R), peripheral blood lymphoblastogenesis test) and virological tests (amount of peripheral blood HTLV-I provirus (real-time quantitative PCR method), anti-HTLV-I antibody titer) were performed.

HAM patients [4] = assay: 10 m gait time, clinical test in HAM patients; format: in vivo, human; conditions: for 10 m gait: individual HAM cases, same s.c. regimen; for 10 m gait, mean value: mean of tested cases
From the text: (§4) The main symptoms of HAM are motility/gait disorders and the like. As items for the clinical evaluation of these symptoms, lower leg motility function (walking time, time for descending stairs, spasticity, motility dysfunction level etc.) tests and the like can be mentioned. By evaluating these items before and after administration of pentosan polysulfate, the treatment effect of subcutaneous injection of pentosan polysulfate on HAM was verified.
as §1, §2, §3

HAM patients [5] = assay: spasticity on modified Ashworth scale (MAS), clinical test in HAM patients; format: in vivo, human; conditions: individual HAM cases; same s.c. regimen; blank = spasticity absent from the start
From the text: Spasticity is one type of hypertonia, and caused by an abnormal increase in the muscle stretch reflex. Clinically, spasticity is a speed-dependent resistance to stretch, which is defined to be the state wherein the muscle is excessively contracted due to the lack of suppression from the central nervous system, which finally leads to an increase in the reflection. As a measurement method of spasticity, the Ashworth scale is well known, and its modified version by Bohannon is often used clinically (modified Ashworth scale; Bohannon R W, Smith M B: Interrater reliability of a Modified Ashworth Scale of Muscle Spasticity. Phys Ther 67: 206-207, 1987). […]
as §3

anti-HTLV-I antibody = anti-HTLV-I antibody titer (PA method), clinical test in HAM patients; format: in vivo, human; conditions: start vs week 8, week 12 (Table 4)
Description: as §1, §2, §3

HAM patients [6] = assay: 30 m gait time, clinical test in HAM patients; format: in vivo, human; conditions: for 30 m gait: individual HAM cases, same s.c. regimen; for 30 m gait, mean value: mean of tested cases
From the text: as §4, §1, §2, §3

HTLV-I provirus [7] = assay: amount of peripheral blood HTLV-I provirus (real-time quantitative PCR), clinical test in HAM patients; format: in vivo, human; conditions: for HTLV-I provirus amount, average: average of 12 cases, average at start 1268; for HTLV-I provirus amount: individual HAM cases, same s.c. regimen
Description: Therefore, for virological evaluation, the amount of peripheral blood HTLV-I provirus was monitored, immunological markers predicted to vary depending on a decrease in the provirus was simultaneously monitored, and the effect of pentosan polysulfate on HTLV-I was verified. In addition, the clinical effects (lower leg motility function etc.) were evaluated simultaneously with the measurement of the virus amount, and the correlation between a decrease in the virus amount and the clinical effect was confirmed. Furthermore, the amount of HTLV-I provirus was measured before and after administration of pentosan polysulfate, and a virus, amount decreasing effect of pentosan polysulfate was confirmed, whereby the possibility of providing a causal therapy was verified. Subject: 12 cases of HAM patients (9 females, 3 males, age; 49-77 years old, duration of illness; 3-52 years) (Table 1). Test method: Sodium pentosan polysulfate was subcutaneously administered by 25 mg for the first time (0 week), 50 mg 1 week later, 100 mg once a week from the second week to the 7th week to the brachial region. The test medicament was used in 1 ml ampoule of sodium pentosan polysulfate (100 mg/ml) supplied by bene pharmaChem of Germany.

HAM patients [8] = assay: time for descending stairs (10 stairs), clinical test in HAM patients; format: in vivo, human; conditions: for descending stairs (10 stairs): individual HAM cases, same s.c. regimen; for descending stairs, mean value: mean of tested cases
From the text: as §4, §1, §2, §3

[9] = system: serum soluble IL-2 receptor (sIL-2R); assay: serum soluble IL-2 receptor (sIL-2R), clinical test in HAM patients; format: in vivo, human; conditions: for sIL-2R: individual HAM cases, same s.c. regimen
Description: as §1, §2, §3

HTLV-I provirus [10] = conditions: anti-HTLV-I therapy with HDAC inhibitor; cited from earlier work
HAM = conditions: recent case-control study; non-patent document 3; cited from earlier work

heparin
clinical effectiveness for HAM patients (HAM patients [1]): clinically effective for HAM patients | HTLV-I infection inhibitory action (HTLV-I): shows an HTLV-I infection inhibitory action

sodium pentosan polysulfate
improvement in motility dysfunction level (HAM patients [2]): only in one case (from 6 to 5 in week 8) | lymphoblastogenesis test (stimulation index to PHA) ([3]; individual HAM cases (table row = case no.), s.c. 25 mg wk 0, 50 mg wk 1, 100 mg weekly wk 2-7, week 8 from start): 9.2 and 12.4 and 4.7 and 7.9 and 16.3 and 14 and 13.3 and 9.4 and 3.7 and 9.7 and 11.9 and 8.2 | lymphoblastogenesis test (stimulation index to PHA) ([3]; individual HAM cases, same s.c. regimen, week 12 from start (week 5 after completion)): 6.1 and 7.1 and 6.7 and 15 and 18.1 and 24.7 and 17.2 and 9.3 and 4.9 and 9.2 and 12.2 and 6.9 | lymphoblastogenesis test, significance of change ([3]; start vs week 8, week 12 (Table 2)): significant difference was not observed | 10 m gait (HAM patients [4]; week 8): 7.5 s and 5.5 s and 15.8 s and 6.4 s and 8.9 s and 11.5 s and 6.5 s and 32.5 s and 13.9 s and 18.5 s | 10 m gait (HAM patients [4]; week 12): 7.1 s and 5.3 s and 16.9 s and 6.2 s and 9.7 s and 12.5 s and 6.5 s and 31.9 s and 15.8 s and 19.9 s | 10 m gait, mean value (HAM patients [4]; week 8, mean at start 14.7 (Table 6 in seconds)): 12.7 | 10 m gait, mean value (HAM patients [4]; week 12, mean at start 14.7): 13.2 | improvement of spasticity (evaluated on modified Ashworth scale (MAS)) (HAM patients [5]): (+) (evaluated (+) when either lower leg improved by 1 grade or more) | anti-HTLV-I antibody test, significance of change (anti-HTLV-I antibody): significant difference was not observed | HTLV-I infection inhibitory action (HTLV-I): very strong HTLV-I infection inhibitory action at a low dose as compared to heparin | 30 m gait (HAM patients [6]; week 8): 22.1 s and 16.8 s and 52.3 s and 20.8 s and 26.7 s and 36.5 s and 20.5 s and 96.5 s and 41.6 s | 30 m gait (HAM patients [6]; week 12): 22 s and 16.6 s and 59.6 s and 19.8 s and 28.6 s and 38.1 s and 20.5 s and 97.5 s and 45.4 s | 30 m gait, mean value (HAM patients [6]; week 8, mean at start 41.7 (Table 7 in seconds)): 37.1 | 30 m gait, mean value (HAM patients [6]; week 12, mean at start 41.7): 38.7 | HTLV-I provirus amount, significance of change (HTLV-I provirus [7]; all 12 cases, week 8 from start of treatment): no significant difference | average decrease in amount of HTLV-I provirus (HTLV-I provirus [7]; all 12 cases, week 8 from start of treatment vs start): about 9% | HTLV-I provirus amount, average (HTLV-I provirus [7]; week 8): 1153 copy number/10^4 PBMC | HTLV-I provirus amount, average (HTLV-I provirus [7]; week 12): 1241 copy number/10^4 PBMC | HTLV-I provirus amount (HTLV-I provirus [7]; week 8): 1140 copy number/10^4 PBMC and 648 copy number/10^4 PBMC and 699 copy number/10^4 PBMC and 503 copy number/10^4 PBMC and 999 copy number/10^4 PBMC and 2149 copy number/10^4 PBMC and 479 copy number/10^4 PBMC and 830 copy number/10^4 PBMC and 2030 copy number/10^4 PBMC and 1621 copy number/10^4 PBMC and 837 copy number/10^4 PBMC and 1900 copy number/10^4 PBMC | HTLV-I provirus amount (HTLV-I provirus [7]; week 12): 1750 copy number/10^4 PBMC and 668 copy number/10^4 PBMC and 697 copy number/10^4 PBMC and 471 copy number/10^4 PBMC and 1032 copy number/10^4 PBMC and 2052 copy number/10^4 PBMC and 460 copy number/10^4 PBMC and 767 copy number/10^4 PBMC and 2380 copy number/10^4 PBMC and 1971 copy number/10^4 PBMC and 853 copy number/10^4 PBMC and 1794 copy number/10^4 PBMC | HTLV-I provirus amount, course after completion of administration (HTLV-I provirus [7]; week 5 after completion of administration (week 12)): a tendency of returning to the amount at the start of the treatment | descending stairs (10 stairs) (HAM patients [8]; week 8): 4.8 seconds (2×) and 4 seconds and 17.5 seconds and 9.1 seconds (2×) and 7.4 seconds and 4.1 seconds | descending stairs (10 stairs) (HAM patients [8]; week 12): 4.9 seconds and 4 seconds (3×) and 21.2 seconds and 12.4 seconds and 8.7 seconds and 8.9 seconds | descending stairs, mean value (HAM patients [8]; week 8, mean at start 9.3 (Table 8 in seconds)): 7.6 | descending stairs, mean value (HAM patients [8]; week 12, mean at start 9.3): 8.5 | sIL-2R ([9]; week 2): 511 pg/mL and 1462 pg/mL and 1086 pg/mL and 933 pg/mL and 1475 pg/mL and 1741 pg/mL and 1524 pg/mL and 1405 pg/mL and 2264 pg/mL and 1256 pg/mL and 1688 pg/mL and 1474 pg/mL | sIL-2R ([9]; week 8): 577 pg/mL and 1482 pg/mL and 904 pg/mL and 1152 pg/mL and 1475 pg/mL and 1551 pg/mL and 1460 pg/mL and 1954 pg/mL and 2420 pg/mL and 1452 pg/mL and 1774 pg/mL and 1964 pg/mL | sIL-2R ([9]; week 12): 627 pg/mL and 1357 pg/mL and 914 pg/mL and 1073 pg/mL and 1557 pg/mL and 1706 pg/mL and 1716 pg/mL and 1864 pg/mL and 2516 pg/mL and 1480 pg/mL and 1882 pg/mL and 1774 pg/mL | soluble IL-2 receptor (sIL-2R) test, significance of change ([9]; start vs weeks 2, 8, 12 (Table 3)): significant difference was not observed

CCCC(CCC)C(=O)O [valproic acid]
effect on amount of peripheral blood HTLV-I provirus (HTLV-I provirus [10]): transiently and markedly increases the amount of peripheral blood HTLV-I provirus

zidovudine+lamivudine
effectiveness as anti-HTLV-I therapy for HAM (HAM): effectiveness thereof was not verified
